Test results: patent US5167947A, “Enhancement of absorption of radioprotective drugs” (Southwest Research Institute, priority 1989, dated 1992)
Values joined by “and” are separate entries in the source; they are usually repeats but may differ in a detail not shown here. Equal values may be shown once. Read-outs that look alike come from different tables or passages of the source.

Legend:
[1] = intraduodenal administration of ethiofos to Rhesus monkeys, plasma levels; type: in vivo; conditions: Rhesus monkey; for plasma levels on coadministration of ethiofos with EDTA: ethiofos / free and total WR-1065
Description: An ethiofos solution was administered via rapid infusion through an infant nasogastric tube instilled in the duodenum of Rhesus monkeys. X-rays were taken to ensure proper location of the tube prior to drug administration. […] Prior to administration of dosing solution, 10 ml of 1 mM EDTA was predosed into the duodenum over 1 hr using a calibrated infusion pump.
(§1) Ethiofos was separated on a Bioanalytical Systems […] Phase II C18 ODS analytical column with an Uptight guard column packed with Whatman Pellicular C18 37-53 mm material. Amperometric detection was conducted with a Bioanalytical Systems LC 4B amperometric detector with a Hg/Au transducer ell. Detector signal was output to a Waters Associates Model 840 data system.
(§2) A […] portion of blood was immediately treated with […] of chilled (0°-4° C.) 1.0M HC10 containing 1 g/L EDTA. The samples were vortexed and centrifuged at 15,600×g for 45 sec. […] Samples were immediately frozen at -78° C. in a dry ice/2-propanol bath and transferred to a freezer maintained at -78° C.
(§3) The samples were prepared for HPLC analysis by adding 200 ml of buffer (pH 10). Samples were injected onto HPLC Unit A and amperometrically detected with an Hg/Au electrode at +0.25 V. The assay method has been previously described by Swynnerton, McGovern, Nino and Mangold: J. Radiat. Oncol.
(§4) J. Radiat. Oncol. […] Samples were injected on HPLC Unit B and amperometrically detected at +0.15 V.

[2] = in situ rat intestinal perfusion of ethiofos: circulating perfusate and portal blood; type: in vivo, rat (male Sprague-Dawley); conditions: for plasma concentration change on addition of Na2 EDTA: 1.0 mM Na2 EDTA vs without; for levels in portal blood samples, change on addition of Na2 EDTA: 1 mM Na2 EDTA vs without, ethiofos / total WR-1065; for level in portal blood: perfusion of [14C]ethiofos in pH-adjusted water, intact ethiofos / total WR-1065
Description: Male Sprague-Dawley rats were maintained on a regular diet of rat chow prior to dosing and fasted 16 h before the experiment. Water was available ad libitum.
Rats weighing between 250 g and 325 g were chosen and anesthetized with 50.0 mg/kg sodium pentobarbital ip. The cannulation of the intestine was performed as previously described.
The proximal cannula was inserted through the stomach wall past the pyloric sphincter for experiments which included the bile flow. Experiments which excluded the bile flow were cannulated approximately 3 cm distal to the pyloric spinchter. Five microcuries of (^3 H)PEG 4000 was included in the perfusate to monitor water flux. For some experiments, 1 mCi of (^14 C)ethiofos was added to the reservoir.
Concommitant sampling of blood was accomplished by insertion of a catheter in the portal vein via the ileocecal vein. […] Rectal temperature was monitored in early experiments to assure maintenance of body temperature in this system.
as §1, §2, §3, §4

[3] = cited from earlier work
[4] = in vivo; cited from earlier work
Rhesus monkeys = conditions: cited from earlier work
[5] = stomach acid; cited from earlier work
[6] = in vivo; cited from earlier work; remark: listed apart in the source
mice [7] = conditions: cited from earlier work
mice [8] = conditions: intravenous; cited from earlier work
dogs = conditions: cited from earlier work
circulating calcium = conditions: human clinical trials; cited from earlier work

O=C(O)CN(CCN(CC(=O)O)CC(=O)O)CC(=O)O [EDTA, ethylenediaminetetraacetic acid]
absorption of ethiofos with EDTA ([1]; intraduodenal, awake): enhanced the absorption | protection of ethiofos degradation in the lumen by EDTA ([2]; rat in situ): some protection | rate of absorption of ethiofos with EDTA ([2]; rat in situ): increase the rate of absorption | EDTA concentration at which increased absorption reaches a maximum ([2]; rat intestinal perfusion of ethiofos): approximately 1 mM | EDTA concentration giving highest ethiofos levels in portal blood ([2]; rat, 90 minutes in situ intestinal perfusion): 1.5 mM

NCCCNCCS [WR-1065]
halflife compared with ethiofos ([3]; rhesus monkey, in vivo, iv): much long halflife | plasma levels on coadministration of ethiofos with EDTA ([1]; intraduodenal, awake): substantial increase | toxicity of the free thiol relative to the parent drug ethiofos [4]: much more toxic | plasma concentration change on addition of Na2 EDTA ([2]; rat): significant increase | levels in portal blood samples, change on addition of Na2 EDTA ([2]; rat): significant increases | metabolite formed in the intestinal lumen ([2]; rat, from perfusate mass balance): major metabolite | level in portal blood ([2]; rat, no EDTA): comparatively high levels

NCCCNCCSP(=O)(O)O [ethiofos, S-2-(3-aminopropylamino)ethylphosphorothioic acid]
protection against X-rays and gamma radiation (Rhesus monkeys; Rhesus monkeys, intravenous): has been shown to protect | protection (oral dosing) (Rhesus monkeys; monkeys, oral): failed to protect | hydrolysis in the acidic environment of the stomach [5]: can be hydrolyzed | plasma halflife ([3]; iv, rhesus monkeys 150 mg/kg): approximately 18 minutes | ethiofos or its metabolites excreted in the urine within 120 hours ([3]; rhesus monkeys, iv 150 mg/kg, most within 24 hours): 80% | slowing of stomach motility and gastric emptying [6]: can slow stomach motility and gastric emptying | plasma levels on coadministration of ethiofos with EDTA ([1]; intraduodenal, awake): detectable levels | AUC ([1]; in vivo, intraduodenal 150 mg/kg, in the presence of EDTA (47:1 ethiofos to EDTA), read-out: AUC (plasma concentration-time curve)): 0.55 µM·h | approximate LD50 (mice [7]; intraperitoneal): ~950 mg/kg | approximate LD50 (mice [7]; oral): ~1500 mg/kg | disappearance of parent compound from the perfusate ([2]; rat in situ, [14C]ethiofos in pH-adjusted water, first 30 minutes, no EDTA): fairly rapid rate | radioactivity accounted for by ethiofos and measured metabolite (mass balance of perfusate) ([2]; rat intestinal perfusate, no EDTA): approximately 85% | radioactivity not accounted for by WR-1065 and ethiofos ([2]; rat intestinal perfusate, no EDTA, may be disulfides): 15% | plasma concentration change on addition of Na2 EDTA ([2]; rat): significant increase | levels in portal blood samples, change on addition of Na2 EDTA ([2]; rat): significant increases | labelled ethiofos / radioactivity remaining in the circulating perfusate ([2]; rat, 90 min perfusion, pH-adjusted water, no EDTA): 90.5±1.7% and 90.5±1.74% | radioactivity remaining in the circulating perfusate ([2]; rat, 90 min perfusion, with 1.0 mM Na2 EDTA): 85.8±1.09% | factor of increase of appearance of ethiofos in rat portal blood ([2]; rat, EDTA enhancement, 90 minutes in situ perfusion): 20 | level in portal blood ([2]; rat, no EDTA): transient and low levels | protection against X-rays and gamma radiation (mice [8]): has been shown to protect | protection against X-rays and gamma radiation (dogs; intravenous): has been shown to protect | protection (oral dosing) (dogs; oral): failed to protect | loss of circulating calcium (circulating calcium): loss of circulating calcium
